Results reported in patent US11318119B2 (Gilead Sciences, Inc., priority 2019, dated 2022).
Where two headings read alike, the source gives them in different places.

Assays:
in vitro = conditions: human, microsomes
Description: Liver Microsomal Stability Protocol
Test compounds and one control compound (verapamil) were tested in 3 different species in duplicate sets.
Reaction composition (in each incubation well) contains:
After plates were vortexed, they were centrifuged for 30 minutes to remove proteins. About 100 μL supernatant was removed to a new plate and diluted with 150 μL water. About 20 μL of the mixture was injected into LC/MS/MS system to monitor the compound's response. In vitro measured t1/2 was used to calculate Clint values.

[1] = system: single replication cycle recombinant virus containing the protease and reverse transcriptase coding regions of HIV-1 from a patient blood sample; format: cell-based; conditions: for mean fold change in susceptibility: mean over the resistant panel of Table 2
Source text: Resistance testing was done by Monogram Biosciences using their proprietary PhenoSense HIV assay. This assay evaluates drug susceptibility by using a single replication cycle recombinant virus containing the protease (amino acids 1-99 plus p7/p1/p6 gag cleavage sites) and reverse transcriptase (amino acids 1-304) coding regions of HIV-1 from a patient blood sample.

[2] = system: HIV-1 (IIIB) in MT-4 cells; assay: MT-4 HIV High Resolution Antiviral Assay; format: cell-based; conditions: EC95=(19)^1/hill coefficient x EC50
Description: (§1) Compounds were tested in a high-throughput 384-well assay format for their ability to inhibit the replication of HIV-1 (IIIB) in MT-4 cells. Compounds were serially diluted (1:3) in DMSO on 384-well polypropylene plates and further diluted 200-fold into complete RPMI media (10% FBS, 1% P/S) using the Biotek Micro Flow and Agilent ECHO acoustic dispenser. Each plate contained up to 8 test compounds, with negative (No Drug Control) and 5 uM AZT positive controls. MT-4 cells were pre-infected with 10 uL of either RPMI (mock-infected) or a fresh 1:250 dilution of an HIV-1 (IIIB) concentrated virus stock. Infected and uninfected MT-4 cells were further diluted in complete RPMI media and added to each plate using a Micro Flow dispenser. After 5 days incubation in a humidified and temperature controlled incubator (37° C.), Cell Titer Glo (Promega) was added to the assay plates to quantify the amount of luciferase.

[3] = system: HIV-1 (IIIB) in MT-4 cells; assay: MT-4 HIV Assay (inhibition of HIV-1 replication, Cell Titer Glo readout); format: cell-based; conditions: Human immunodeficiency virus 1, MT4, 120 h, 5 days incubation
Description: as §1

recombinant HIV protease = target: T1, recombinant HIV protease (Human immunodeficiency virus type 1 group M subtype B, UniProt P04585); assay: HIV Protease Enzyme Inhibition (PI) Activity, fluorogenic enzymatic assay; format: biochemical
T1 construct: recombinant HIV protease
Description: HIV Protease Enzyme Inhibition (PI) Activity
Inhibitor potency against HIV protease can be measured using an enzymatic assay with a fluorogenic readout. To a reaction buffer containing 100 mM ammonium acetate at pH 5.3, 100 mM NaCl, 1 mM EDTA, 1 mM DTT, 0.25 mg/mL BSA and 1% DMSO are added 10 nM of recombinant HIV protease (concentration based on protein monomer) and test compound at one of various concentrations. After a 10-minute pre-incubation, the enzymatic reaction is initiated by the addition of the fluorogenic substrate (2-aminobenzoyl)Thr-Ile-Nle-(p-nitro)Phe-Gln-Arg (Bachem; Product No. H-2992) (SEQ ID NO: 1) to a final concentration of 40 μM. The total volume of the assay solution is 100 μL. The reaction is measured over 10 minutes on a Tecan Infinite M1000 plate reader using an excitation wavelength of 320 nm and a detection wavelength of 420 nm. The slopes of the progress curves are the measure of reaction rates. Reaction rates are plotted as a function of inhibitor concentration, and the data are fit with a four-parameter logistic fit using Graphpad PRISM software to yield IC50 values.

[4] = Resistance mutations D30N L33F N88D L90M
[5] = Resistance mutations L10F L33F M46I I50V V82A N88D L89V
[6] = Resistance mutations L10F M46I I47V I50V I54V G73S I84V L90M
[7] = Resistance mutations L10F M46L I54V V82A 184V
[8] = Resistance mutations L10F V32I M46I I47V I50V I54L I84V
[9] = Resistance mutations L10F/L D30N I54V N88D L90M
[10] = Resistance mutations L10F/L D30N L33F I54L N88D L90M
[11] = Resistance mutations L10I I50 V82A L90M
[12] = Resistance mutations L10I L33F G48V I50L I54V/I V82A
[13] = Resistance mutations L10I L33F M46I I54V V82A I84V
[14] = Resistance mutations L10I L33F M46L G48V I54M V82A I84V L90M
[15] = Resistance mutations L10I L33F/L G48V G73S V82A
[16] = Resistance mutations L10I M46I G48V I50V V82A L90M
[17] = Resistance mutations L10I M46I I50V
[18] = Resistance mutations L10I M46L I54V V82A
[19] = Resistance mutations L10I M46L I54V V82F L90M
[20] = Resistance mutations L10I V32I L33F M46L I54L I84V L89V
[21] = Resistance mutations L10I V32I M46I I47V G48V I54M V82T L90M
[22] = Resistance mutations L10I V32I M46I I47V I50V I54L L90M
[23] = Resistance mutations L10V L33F I50L L90M
[24] = Resistance mutations L10V L33F M46I I54V V82A I84V L90M/L
[25] = Resistance mutations L10V/L M46I I50L V82A
[26] = Resistance mutations L33F M46I I50V L76V
[27] = Resistance mutations M46I L76V I84V
[28] = 10 nM recombinant HIV protease, pH 5.3, 40 μM fluorogenic substrate, read-out: HIV PI IC50

COC(=O)N[C@H](C(=O)N[C@@H](Cc1ccccc1)[C@@H](O)CN(Cc1ccc(-c2ccccn2)cc1)NC(=O)[C@@H](NC(=O)OC)C(C)(C)C)C(C)(C)C [Atazanavir, methyl N-[(2S)-1-[2-[(2S,3S)-2-hydroxy-3-[[(2S)-2-(methoxycarbonylamino)-3,3-dimethylbutanoyl]amino]-4-phenylbutyl]-2-[(4-pyridin-2-ylphenyl)methyl]hydrazinyl]-3,3-dimethyl-1-oxobutan-2-yl]carbamate, reference compound]
half-life at 1 μM (in vitro): 26 to 107 min | Fold Change in EC50 [1, 4]: 4.68 | Fold Change in EC50 [1, 5]: 1.25 | Fold Change in EC50 [1, 6]: 19 | Fold Change in EC50 [1, 7]: 73 | Fold Change in EC50 [1, 8]: 5.44 | Fold Change in EC50 [1, 9]: 29 | Fold Change in EC50 [1, 10]: 15 | Fold Change in EC50 [1, 11]: 33 | Fold Change in EC50 [1, 12]: 70 | Fold Change in EC50 [1, 13]: 44 | Fold Change in EC50 [1, 14]: 70 | Fold Change in EC50 [1, 15]: >91 | Fold Change in EC50 [1, 16]: 39 | Fold Change in EC50 [1, 17]: 2.39 | Fold Change in EC50 [1, 18]: 9.73 | Fold Change in EC50 [1, 19]: 24 | Fold Change in EC50 [1, 20]: 89 | Fold Change in EC50 [1, 21]: 9.49 | Fold Change in EC50 [1, 22]: 25 | Fold Change in EC50 [1, 23]: >91 | Fold Change in EC50 [1, 24]: 9.69 | Fold Change in EC50 [1, 25]: 69 | Fold Change in EC50 [1, 26]: 1.84 | Fold Change in EC50 [1, 27]: 1.36 | mean fold change in susceptibility [1]: 17.7

CC(C)(C[C@]1(c2ccc(-c3ccc(S(C)(=O)=O)cc3)cc2)NC(=N)N([C@H](COC(=O)NC2(C(F)F)CC2)c2ccc(Cl)c(-c3ncnn3C(F)F)c2)C1=O)C(F)(F)F [Compound 1, (S)-2-(4-chloro-3-(1-(difluoromethyl)-1H-1,2,4-triazol-5-yl)phenyl)-2-((R)-2-imino-4-(4′-(methylsulfonyl)-[1,1′-biphenyl]-4-yl)-5-oxo-4-(3,3,3-trifluoro-2,2-dimethylpropyl)imidazolidin-1-yl)ethyl (1-(difluoromethyl)cyclopropyl)carbamate]
EC95 [2]: 24.9 nM | EC50 [3]: 13.2 nM | IC50 (recombinant HIV protease; [28]): 1.8 nM

CC(C)(C[C@]1(c2ccc(-c3cccc(S(C)(=O)=O)c3)cc2)NC(=N)N([C@H](COC(=O)NC2(C(F)F)CC2)c2ccc(Cl)c(-c3ncnn3C(F)F)c2)C1=O)C(F)(F)F [Compound 2]
EC50 [3]: 27.5 nM | IC50 (recombinant HIV protease; [28]): 2.9 nM

CC(C)(C[C@]1(c2ccc(-c3ccc(S(C)(=O)=O)c(F)c3)cc2)NC(=N)N([C@H](COC(=O)NC2(C(F)F)CC2)c2ccc(Cl)c(-c3ncnn3C(F)F)c2)C1=O)C(F)(F)F [Compound 3]
EC50 [3]: 11.1 nM | IC50 (recombinant HIV protease; [28]): 2.9 nM

CC(C)(C[C@]1(c2ccc(-c3ccc(S(C)(=O)=O)cc3F)cc2)NC(=N)N([C@H](COC(=O)NC2(C(F)F)CC2)c2ccc(Cl)c(-c3ncnn3C(F)F)c2)C1=O)C(F)(F)F [Compound 4]
EC50 [3]: 11.3 nM | IC50 (recombinant HIV protease; [28]): 2.4 nM

CC(C)(C[C@]1(c2ccc(-c3ccc(F)cc3)cc2)NC(=N)N([C@H](COC(=O)NC2(C(F)F)CC2)c2ccc(Cl)c(-c3ncnn3C(F)F)c2)C1=O)C(F)(F)F [Compound 5]
EC50 [3]: 63.1 nM | IC50 (recombinant HIV protease; [28]): 4.5 nM

CC(C)(C[C@]1(c2ccc(-c3cccc(F)c3)cc2)NC(=N)N([C@H](COC(=O)NC2(C(F)F)CC2)c2ccc(Cl)c(-c3ncnn3C(F)F)c2)C1=O)C(F)(F)F [Compound 6]
EC50 [3]: 50 nM | IC50 (recombinant HIV protease; [28]): 2.3 nM

CC(C)(C[C@]1(c2ccc(-c3cnn(C(F)F)c3)cc2)NC(=N)N([C@H](COC(=O)NC2(C(F)F)CC2)c2ccc(Cl)c(-c3ncnn3C(F)F)c2)C1=O)C(F)(F)F [Compound 7]
EC95 [2]: 17.8 nM | EC50 [3]: 7.8 nM | IC50 (recombinant HIV protease; [28]): 1.8 nM | Fold Change in EC50 [1, 4]: 3.62 | Fold Change in EC50 [1, 5]: 0.58 | Fold Change in EC50 [1, 6]: 3.51 | Fold Change in EC50 [1, 7]: 0.91 | Fold Change in EC50 [1, 8]: 1.08 | Fold Change in EC50 [1, 9]: 5.32 | Fold Change in EC50 [1, 10]: 2.57 | Fold Change in EC50 [1, 11]: 1.7 | Fold Change in EC50 [1, 12]: 0.72 | Fold Change in EC50 [1, 13]: 2.49 | Fold Change in EC50 [1, 14]: 2.9 | Fold Change in EC50 [1, 15]: 2.34 | Fold Change in EC50 [1, 16]: 9.22 | Fold Change in EC50 [1, 17]: 2.2 | Fold Change in EC50 [1, 18]: 5.84 | Fold Change in EC50 [1, 19]: 4.33 | Fold Change in EC50 [1, 20]: 0.82 | Fold Change in EC50 [1, 21]: 2.84 | Fold Change in EC50 [1, 22]: 3.92 | Fold Change in EC50 [1, 23]: 3.09 | Fold Change in EC50 [1, 24]: 2.6 | Fold Change in EC50 [1, 25]: 4.77 | Fold Change in EC50 [1, 26]: 1.39 | Fold Change in EC50 [1, 27]: 2.04 | mean fold change in susceptibility [1]: 2.4

CC(C)(C[C@]1(c2ccc(-c3ccn(C(F)F)n3)cc2)NC(=N)N([C@H](COC(=O)NC2(C(F)F)CC2)c2ccc(Cl)c(-c3ncnn3C(F)F)c2)C1=O)C(F)(F)F [Compound 8, (S)-2-(4-chloro-3-(1-(difluoromethyl)-1H-1,2,4-triazol-5-yl)phenyl)-2-((R)-4-(4-(1-(difluoromethyl)-1H-pyrazol-3-yl)phenyl)-2-imino-5-oxo-4-(3,3,3-trifluoro-2,2-dimethylpropyl)imidazolidin-1-yl)ethyl (1-(difluoromethyl)cyclopropyl)carbamate]
EC50 [3]: 8.4 nM | IC50 (recombinant HIV protease; [28]): 2 nM

CC(C)(C[C@]1(c2ccc(-c3cn(C(F)F)cn3)cc2)NC(=N)N([C@H](COC(=O)NC2(C(F)F)CC2)c2ccc(Cl)c(-c3ncnn3C(F)F)c2)C1=O)C(F)(F)F [Compound 9, (S)-2-(4-chloro-3-(1-(difluoromethyl)-1H-1,2,4-triazol-5-yl)phenyl)-2-((R)-4-(4-(1-(difluoromethyl)-1H-imidazol-4-yl)phenyl)-2-imino-5-oxo-4-(3,3,3-trifluoro-2,2-dimethylpropyl)imidazolidin-1-yl)ethyl (1-(difluoromethyl)cyclopropyl)carbamate]
EC50 [3]: 26.3 nM | IC50 (recombinant HIV protease): 5.7 nM
